For this assay, the system named is 5-hydroxy tryptophan (5-HTP). Description: potentialisation of 5-HTP in the rat (anti-depressive activity). The class given is in vivo. The conditions noted are these: 1 h, oral administration, 5-HTP intraperitoneally one hour after the first treatment, read-out: ED50 (dose producing generalised tremors or stereotypy in 50% of the animals). An excerpt:
The anti-depressive activity was shown by the test of potentialisation of 5-HTP in the rat by the method described by M. JALFRE, B. BUCHER, A. COSTON, G. MOCQUET and R. D. PORSOLT: Arch. Int. Pharmacodyn., (1982), 259, 194-221. A determination on the rat was made of that dose of the product which, orally administered, produces generalised tremors or stereotypy (drumming, head movements) in 50% of the animals (ED50) after intraperitoneal administration of 5-hydroxy tryptophan (5-HTP) one hour after the first treatment. The results obtained in the preceding test, using some compounds according to the invention, are given by way of example in the following table: […]

As a reminder, the ED50 is the midpoint of the dose-response relation. In the case of `COC[C@H]1CN(c2ccc(OCC[C@@H](OCc3ccncc3)C(F)(F)F)cc2)C(=O)O1` [MD 290057, 3-[4-[4,4,4-trifluoro 3-(4-pyridylmethoxy)(R)butoxy]phenyl]5-methoxymethyl(R)2-oxazolidinone], the ED50 was 0.53 mg/kg.

As for `COC[C@H]1CN(c2ccc(OCC[C@@H](OCc3ccc[n+]([O-])c3)C(F)(F)F)cc2)C(=O)O1` [MD 290065, 3-[4-[4,4,4-trifluoro3-(3-N-oxide-pyridylmethoxy)(R)butoxy]phenyl]5-methoxymethyl(R) 2-oxazolidinone], the ED50 amounted to 0.62 mg/kg.

Turning to `COC[C@H]1CN(c2ccc(OCC[C@@H](OCc3cccnc3)C(F)(F)F)cc2)C(=O)O1` [MD 360411 (oxalate), 3-[4-[4,4,4-trifluoro 3-(3-pyridylmethoxy)(R)butoxy]phenyl]5-methoxymethyl(R)2-oxazolidinone], the 50% effective dose (ED50) worked out at 0.4 mg/kg.

These data come from patent publication US5264443A, “3-aryl oxazolidinone compounds and therapeutic use thereof” (Delalande S.A., priority 1991, dated 1993).
